System: mealybug, Pseudococcus spp.
Test: Field efficacy on mealy bug, small-plot trials on cotton (Trials A, B, C)
Format: in vivo
Settings: Sulfoxaflor 50 g/ha, Chlorpyrifos 500 g/ha, mixture 50 + 500 g/ha
Method: Field Efficacy on Mealy Bug
Applications were made to cotton, Gossypium hirsutum, using small-plot efficacy methods. Chemicals were diluted in water and all treatments were applied using a backpack sprayer calibrated to deliver 500 liters of spray per hectare. Experimental plots measured 5 by 10 meters and each treatment was replicated three times in each trial. Prior to treatment, 20 plants that were uniformly infested with mealybug, Pseudococcus spp., were marked in each experimental plot. At the specified intervals after treatment, the severity of mealybug infestation on the marked plants was rated using a 0-4 scale, where 0=no infestation and 4=stunted, blackened plant. The score for each plant in each experimental plot was summed to provide a total severity score for the plot. Data were transformed to percent control relative to the untreated plots, then subjected to analysis of variance, and means were separated using Tukey's HSD (p=0.1). Expected control was calculated using the method of Colby and compared to observed control. See the Table Section for the results of the Field Trials.

SMILES	% Control (Trial A, 3 DAT) [%]	% Control (Trial A, 7 DAT) [%]	% Control (Trial A, 11 DAT) [%]	% Control (Trial B, 3 DAT) [%]	% Control (Trial B, 7 DAT) [%]	% Control (Trial B, 11 DAT) [%]	% Control (Trial B, 14 DAT) [%]	% Control (Trial C, 4 DAT) [%]	% Control (Trial C, 8 DAT) [%]	% Control (Trial C, 11 DAT) [%]	% Control (Trial C, 14 DAT) [%]
CCOP(=S)(OCC)Oc1nc(Cl)c(Cl)cc1Cl [Chlorpyrifos]	35.64	43.34	43.60	35.23	38.80	33.51	26.89	36.44	33.37	28.24	23.03
CC(c1ccc(C(F)(F)F)nc1)S(C)(=O)=NC#N (stereo not shown) [Sulfoxaflor]	17.56	21.65	20.68	−2.66	7.81	7.81	5.32	7.39	9.19	4.76	2.49
